From ChEMBL document CHEMBL1201862, “PubChem BioAssay data set” (2004)
Active and inactive are the calls of the source.

What was measured:
Assay type in all cases: functional
[1] = target: Inhibitor of nuclear factor kappa-B kinase subunit epsilon (Homo sapiens, UniProt Q14164); assay: Navigating the Kinome. Panel member name: IKBKE
[2] = target: Mitogen-activated protein kinase kinase kinase 20 (Homo sapiens, UniProt Q9NYL2)
[3] = target: Tyrosine-protein kinase Fer (Homo sapiens, UniProt P16591);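 note: FER tested as one member of a kinome panel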
[4] = target: Serine/threonine-protein kinase TAO1 (Homo sapiens, UniProt Q7L7X3)
[5] = target: Tyrosine-protein kinase Fyn (Homo sapiens, UniProt P06241)
[6] = target: Dual specificity protein kinase CLK2 (Homo sapiens, UniProt P49760)
[7] = target: Death-associated protein kinase 3 (Homo sapiens, UniProt O43293);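 note: measured as one member of a kinome-wide profiling panel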
[8] = target: Homeodomain-interacting protein kinase 4 (Homo sapiens, UniProt Q8NE63)
[9] = target: RAC-gamma serine/threonine-protein kinase (Homo sapiens, UniProt Q9Y243)
[10] = target: Serine/threonine-protein kinase 17A (Homo sapiens, UniProt Q9UEE5)
[11] = target: Mast/stem cell growth factor receptor Kit (Homo sapiens, UniProt P10721);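 note: KIT entry within a kinase panel assay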
[12] = target: Serine/threonine-protein kinase DCLK1 (Homo sapiens, UniProt O15075);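 note: affinity for DCLK1 (listed as DCAMKL1) measured as one member of a kinome-wide kinase profiling panel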
[13] = target: Calcium/calmodulin-dependent protein kinase kinase 2 (Homo sapiens, UniProt Q96RR4); assay: Navigating the Kinome. Panel member name: CAMKK2
[14] = target: Serine/threonine-protein kinase D3 (Homo sapiens, UniProt O94806);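 note: determined within a kinase panel screen, with PRKCN as the panel member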
[15] = target: Testis-specific serine/threonine-protein kinase 1 (Homo sapiens, UniProt Q9BXA7)
[16] = target: Receptor tyrosine-protein kinase erbB-4 (Homo sapiens, UniProt Q15303);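 note: ERBB4 member of a kinome-wide kinase profiling panel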
[17] = target: Tyrosine-protein kinase HCK (Homo sapiens, UniProt P08631); assay: Navigating the Kinome. Panel member name: HCK
[18] = target: Rho-associated protein kinase 1 (Homo sapiens, UniProt Q13464);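 note: measured within a broad kinome-wide panel profiling many kinases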
[19] = target: Ephrin type-A receptor 2 (Homo sapiens, UniProt P29317);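 note: EPHA2 tested as one member of a kinome-wide kinase panel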
[20] = target: Serine/threonine-protein kinase PLK1 (Homo sapiens, UniProt P53350);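 note: PLK1 measured as one member of a kinome-wide profiling panel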
[21] = target: MAP kinase-interacting serine/threonine-protein kinase 2 (Homo sapiens, UniProt Q9HBH9)

Sequence of Dual specificity protein kinase CLK2 (P49760 whole entry): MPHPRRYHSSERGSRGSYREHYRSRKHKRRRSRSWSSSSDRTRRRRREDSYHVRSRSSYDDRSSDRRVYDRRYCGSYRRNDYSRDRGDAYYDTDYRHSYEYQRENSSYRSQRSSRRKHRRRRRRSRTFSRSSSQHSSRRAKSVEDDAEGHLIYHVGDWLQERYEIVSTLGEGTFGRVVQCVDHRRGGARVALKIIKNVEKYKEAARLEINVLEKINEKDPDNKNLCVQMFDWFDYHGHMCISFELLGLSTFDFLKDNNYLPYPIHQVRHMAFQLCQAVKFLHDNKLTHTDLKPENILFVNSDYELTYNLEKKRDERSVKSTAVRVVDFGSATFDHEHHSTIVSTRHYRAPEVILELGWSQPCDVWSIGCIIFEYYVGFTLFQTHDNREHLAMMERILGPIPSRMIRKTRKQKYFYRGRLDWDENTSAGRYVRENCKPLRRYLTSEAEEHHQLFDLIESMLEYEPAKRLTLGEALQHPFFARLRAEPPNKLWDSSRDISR
Sequence of Testis-specific serine/threonine-protein kinase 1 (Q9BXA7 whole entry): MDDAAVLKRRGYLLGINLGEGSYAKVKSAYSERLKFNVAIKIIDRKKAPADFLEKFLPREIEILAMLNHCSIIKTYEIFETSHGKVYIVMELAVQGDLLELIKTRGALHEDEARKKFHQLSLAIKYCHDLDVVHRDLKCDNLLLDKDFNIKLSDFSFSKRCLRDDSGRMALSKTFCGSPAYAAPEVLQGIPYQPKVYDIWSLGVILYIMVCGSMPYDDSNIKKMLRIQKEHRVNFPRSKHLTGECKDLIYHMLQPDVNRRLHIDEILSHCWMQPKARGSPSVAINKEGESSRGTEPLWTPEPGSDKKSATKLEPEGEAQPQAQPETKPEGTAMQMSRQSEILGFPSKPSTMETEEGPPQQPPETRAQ
Sequence of Homeodomain-interacting protein kinase 4 (Q8NE63 whole entry): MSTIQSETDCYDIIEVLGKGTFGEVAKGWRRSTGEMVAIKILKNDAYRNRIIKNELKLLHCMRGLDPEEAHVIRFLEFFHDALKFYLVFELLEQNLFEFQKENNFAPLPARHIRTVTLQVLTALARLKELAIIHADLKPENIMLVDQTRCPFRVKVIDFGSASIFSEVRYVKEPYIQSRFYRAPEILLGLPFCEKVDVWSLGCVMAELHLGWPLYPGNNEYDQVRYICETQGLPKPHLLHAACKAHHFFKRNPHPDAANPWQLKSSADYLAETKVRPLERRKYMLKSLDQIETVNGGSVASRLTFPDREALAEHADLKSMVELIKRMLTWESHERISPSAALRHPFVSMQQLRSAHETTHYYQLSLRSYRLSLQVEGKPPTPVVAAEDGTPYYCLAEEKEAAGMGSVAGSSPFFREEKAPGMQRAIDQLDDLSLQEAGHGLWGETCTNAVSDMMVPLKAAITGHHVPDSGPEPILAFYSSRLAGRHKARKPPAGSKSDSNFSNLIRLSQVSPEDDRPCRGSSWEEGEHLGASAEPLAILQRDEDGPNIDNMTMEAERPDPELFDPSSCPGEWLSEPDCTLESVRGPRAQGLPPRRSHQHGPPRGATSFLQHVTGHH
Sequence of RAC-gamma serine/threonine-protein kinase (Q9Y243 whole entry): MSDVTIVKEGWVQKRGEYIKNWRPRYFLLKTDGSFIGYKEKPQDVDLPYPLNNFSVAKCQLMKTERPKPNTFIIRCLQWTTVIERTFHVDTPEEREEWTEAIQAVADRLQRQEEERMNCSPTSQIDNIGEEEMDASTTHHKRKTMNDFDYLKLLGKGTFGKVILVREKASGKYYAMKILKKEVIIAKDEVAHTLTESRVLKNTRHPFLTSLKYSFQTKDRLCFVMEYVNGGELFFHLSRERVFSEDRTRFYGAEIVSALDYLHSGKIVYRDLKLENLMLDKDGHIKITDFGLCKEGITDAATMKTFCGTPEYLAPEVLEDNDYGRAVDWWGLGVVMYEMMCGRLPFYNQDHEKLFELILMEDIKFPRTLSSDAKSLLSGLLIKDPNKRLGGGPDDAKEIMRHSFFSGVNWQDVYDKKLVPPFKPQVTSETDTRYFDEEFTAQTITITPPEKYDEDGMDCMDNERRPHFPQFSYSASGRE
Sequence of Serine/threonine-protein kinase PLK1 (P53350 whole entry): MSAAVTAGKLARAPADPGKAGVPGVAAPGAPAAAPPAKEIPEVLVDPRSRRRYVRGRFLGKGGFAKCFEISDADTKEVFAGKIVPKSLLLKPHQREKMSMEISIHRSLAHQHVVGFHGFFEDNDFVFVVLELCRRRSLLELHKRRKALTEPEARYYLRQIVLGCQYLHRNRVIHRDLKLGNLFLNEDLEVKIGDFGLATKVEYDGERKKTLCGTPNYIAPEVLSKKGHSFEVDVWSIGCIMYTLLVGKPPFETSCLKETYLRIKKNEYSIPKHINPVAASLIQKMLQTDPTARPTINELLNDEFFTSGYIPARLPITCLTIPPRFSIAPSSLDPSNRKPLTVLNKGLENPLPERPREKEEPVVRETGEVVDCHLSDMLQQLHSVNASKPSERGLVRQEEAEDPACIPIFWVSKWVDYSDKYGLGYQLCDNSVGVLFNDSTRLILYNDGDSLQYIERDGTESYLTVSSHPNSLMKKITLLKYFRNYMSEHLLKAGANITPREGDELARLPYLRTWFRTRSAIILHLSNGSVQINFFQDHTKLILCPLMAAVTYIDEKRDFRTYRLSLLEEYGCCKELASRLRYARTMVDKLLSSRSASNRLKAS
Sequence of Tyrosine-protein kinase Fyn (P06241 whole entry): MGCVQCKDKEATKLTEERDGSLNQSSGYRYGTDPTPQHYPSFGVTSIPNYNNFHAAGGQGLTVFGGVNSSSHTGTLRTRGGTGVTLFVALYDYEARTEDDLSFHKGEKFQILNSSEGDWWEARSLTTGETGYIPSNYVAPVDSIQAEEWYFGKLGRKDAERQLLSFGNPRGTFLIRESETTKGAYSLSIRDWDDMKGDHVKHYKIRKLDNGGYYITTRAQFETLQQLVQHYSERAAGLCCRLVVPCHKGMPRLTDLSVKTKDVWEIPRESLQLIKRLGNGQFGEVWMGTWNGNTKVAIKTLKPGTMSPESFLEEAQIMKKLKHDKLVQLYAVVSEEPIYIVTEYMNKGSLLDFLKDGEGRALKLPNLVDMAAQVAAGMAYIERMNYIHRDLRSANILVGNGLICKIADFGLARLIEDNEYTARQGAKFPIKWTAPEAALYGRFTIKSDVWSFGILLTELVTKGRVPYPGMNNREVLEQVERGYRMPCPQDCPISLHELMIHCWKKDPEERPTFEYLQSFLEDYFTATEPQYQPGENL
Sequence of Mast/stem cell growth factor receptor Kit (P10721 whole entry): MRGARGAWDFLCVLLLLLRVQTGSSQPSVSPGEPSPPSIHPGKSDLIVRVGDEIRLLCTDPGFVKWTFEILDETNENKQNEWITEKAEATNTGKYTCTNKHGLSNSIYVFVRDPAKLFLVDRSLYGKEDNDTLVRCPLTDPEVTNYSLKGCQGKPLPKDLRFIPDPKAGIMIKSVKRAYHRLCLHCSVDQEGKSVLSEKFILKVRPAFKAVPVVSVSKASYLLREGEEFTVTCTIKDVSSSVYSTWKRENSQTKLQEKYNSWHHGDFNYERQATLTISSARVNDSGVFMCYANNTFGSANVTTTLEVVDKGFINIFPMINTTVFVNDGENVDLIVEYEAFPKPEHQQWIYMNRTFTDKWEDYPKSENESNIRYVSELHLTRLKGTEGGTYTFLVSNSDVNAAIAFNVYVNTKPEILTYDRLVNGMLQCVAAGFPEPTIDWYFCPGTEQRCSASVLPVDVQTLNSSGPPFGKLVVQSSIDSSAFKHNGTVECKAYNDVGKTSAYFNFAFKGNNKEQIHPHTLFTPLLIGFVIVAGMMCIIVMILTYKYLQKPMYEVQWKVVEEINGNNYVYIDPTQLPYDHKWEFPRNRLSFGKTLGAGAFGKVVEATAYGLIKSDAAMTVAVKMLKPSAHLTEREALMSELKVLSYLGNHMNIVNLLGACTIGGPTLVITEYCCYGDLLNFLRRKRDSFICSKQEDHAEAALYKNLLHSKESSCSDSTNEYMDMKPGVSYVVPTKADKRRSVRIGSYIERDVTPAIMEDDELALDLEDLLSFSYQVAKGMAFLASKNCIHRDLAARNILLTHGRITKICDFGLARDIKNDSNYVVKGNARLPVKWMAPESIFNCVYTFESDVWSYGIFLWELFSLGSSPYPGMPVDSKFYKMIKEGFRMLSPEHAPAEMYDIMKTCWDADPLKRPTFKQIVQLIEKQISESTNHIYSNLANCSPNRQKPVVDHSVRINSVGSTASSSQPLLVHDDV
Sequence of Calcium/calmodulin-dependent protein kinase kinase 2 (Q96RR4 whole entry): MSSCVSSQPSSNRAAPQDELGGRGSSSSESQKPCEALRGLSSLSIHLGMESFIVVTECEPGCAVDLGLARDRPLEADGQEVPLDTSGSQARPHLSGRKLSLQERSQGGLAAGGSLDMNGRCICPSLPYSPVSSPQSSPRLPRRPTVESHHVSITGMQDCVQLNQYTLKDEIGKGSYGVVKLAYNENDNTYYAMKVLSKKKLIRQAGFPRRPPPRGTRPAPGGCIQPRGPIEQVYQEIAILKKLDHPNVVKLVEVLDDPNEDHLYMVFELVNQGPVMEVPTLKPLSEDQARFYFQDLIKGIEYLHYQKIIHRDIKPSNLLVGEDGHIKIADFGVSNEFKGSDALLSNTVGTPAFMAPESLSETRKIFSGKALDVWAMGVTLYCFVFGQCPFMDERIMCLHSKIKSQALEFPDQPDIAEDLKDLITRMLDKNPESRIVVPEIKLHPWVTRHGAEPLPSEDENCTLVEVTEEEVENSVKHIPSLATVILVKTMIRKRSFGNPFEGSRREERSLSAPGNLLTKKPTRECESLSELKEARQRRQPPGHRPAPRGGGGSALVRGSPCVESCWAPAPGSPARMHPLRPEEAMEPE

- Ki [1]: > 3160 nM (inactive)
- Ki [2]: 2510 nM (active)
- Ki [3]: > 1580 nM (inactive)
- Ki [4]: > 5010 nM (inactive)
- Ki [5]: > 3160 nM (inactive)
- Ki [6]: > 2510 nM (inactive)
- Ki [8]: 501 nM (active)
- Ki [9]: 251 nM (active)
- Ki [10]: 39.8 nM (active)
- Ki [11]: > 3160 nM (inactive)
- Ki [12]: 2510 nM (active)
- Ki [13]: > 2510 nM (inactive)
- Ki [14]: 398 nM (active)
- Ki [15]: 251 nM (active)
- Ki [16]: > 3980 nM (inactive)
- Ki [17]: > 3160 nM (inactive)
- Ki [18]: 79.4 nM (active)
- Ki [19]: > 3160 nM (inactive)
- Ki [20]: > 7940 nM (inactive)
- Ki [21]: 25.1 nM (active)
SMILES: NCCCn1cc(-c2cc(-c3cc4ccccc4s3)c3[nH]ncc3c2)c2nc(N)ncc21
- Ki [7]: 79.4 nM (active)
